Experiments:
Assay in all cases: normalized area under the dose-response curve (viability relative to DMSO control) (fraction); higher = less sensitive (more viable cells)
Settings in all cases: exposure time not given
[1] = test system: Granta-519 (cancer type: Mantle)
Experimental: (§1)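 25 myeloma and 15 non-Hodgkin lymphoma cell lines were exposed to each of 76 drugs as 7-point log dilutions (0.01 nM–10 µM) in duplicate. Viability was read with CellTiter-Glo and normalised to DMSO (0.1%) and staurosporine (10 µM) plate controls. Normalised AUC was calculated by the trapezoidal method relative to the negative control.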

[2] = test system: KMS28PE (cancer type: MM)
Experimental: as §1

[3] = test system: SU-DHL2 (cancer type: DLBCL)
Experimental: as §1

[4] = test system: FR4 (cancer type: MM)
Experimental: as §1

[5] = test system: JJN3 (cancer type: MM)
Experimental: as §1

[6] = test system: OCI-LY1 (cancer type: DLBCL)
Experimental: as §1

[7] = test system: OPM2 (cancer type: MM)
Experimental: as §1

[8] = test system: Mino (cancer type: Mantle)
Experimental: as §1

[9] = test system: KMS12PE (cancer type: MM)
Experimental: as §1

[10] = test system: JeKo-1 (cancer type: Mantle)
Experimental: as §1

[11] = test system: XG2 (cancer type: MM)
Experimental: as §1

[12] = test system: L363 (cancer type: MM)
Experimental: as §1

[13] = test system: HuT 78 (cancer type: TCL)
Experimental: as §1

[14] = test system: Se-Ax (cancer type: TCL)
Experimental: as §1

[15] = test system: MM1.R (cancer type: MM)
Experimental: as §1

[16] = test system: LP1 (cancer type: MM)
Experimental: as §1

[17] = test system: AMO1 (cancer type: MM)
Experimental: as §1

[18] = test system: SKMM2 (cancer type: MM)
Experimental: as §1

[19] = test system: OCI-MY7 (cancer type: MM)
Experimental: as §1

[20] = test system: KMS34 (cancer type: MM)
Experimental: as §1

[21] = test system: KMS18 (cancer type: MM)
Experimental: as §1

[22] = test system: KMS26 (cancer type: MM)
Experimental: as §1

[23] = test system: KMS28BM (cancer type: MM)
Experimental: as §1

[24] = test system: OCI-MY5 (cancer type: MM)
Experimental: as §1

[25] = test system: My-La (cancer type: TCL)
Experimental: as §1

[26] = test system: SU-DHL6 (cancer type: DLBCL)
Experimental: as §1

[27] = test system: MM1.S (cancer type: MM)
Experimental: as §1

[28] = test system: OCI-LY19 (cancer type: DLBCL)
Experimental: as §1

[29] = test system: OCI-MY5/Vec (cancer type: MM)
Experimental: as §1

[30] = test system: SR-786 (cancer type: TCL)
Experimental: as §1

[31] = test system: OCI-MY5/CRBN (cancer type: MM)
Experimental: as §1

[32] = test system: Karpas-299 (cancer type: TCL)
Experimental: as §1

[33] = test system: EJM (cancer type: MM)
Experimental: as §1

[34] = test system: OCI-LY3 (cancer type: DLBCL)
Experimental: as §1

[35] = test system: KMS11 (cancer type: MM)
Experimental: as §1

[36] = test system: SU-DHL1 (cancer type: TCL)
Experimental: as §1

[37] = test system: U266 (cancer type: MM)
Experimental: as §1

[38] = test system: JVM2 (cancer type: Mantle)
Experimental: as §1

[39] = test system: RPMI 8226 (cancer type: MM)
Experimental: as §1

[40] = test system: NCI-H929 (cancer type: MM)
Experimental: as §1

Row | SMILES | normalized area under the dose-response curve [1] | normalized area under the dose-response curve [2] | normalized area under the dose-response curve [3] | normalized area under the dose-response curve [4] | normalized area under the dose-response curve [5] | normalized area under the dose-response curve [6] | normalized area under the dose-response curve [7] | normalized area under the dose-response curve [8] | normalized area under the dose-response curve [9] | normalized area under the dose-response curve [10] | normalized area under the dose-response curve [11] | normalized area under the dose-response curve [12] | normalized area under the dose-response curve [13] | normalized area under the dose-response curve [14] | normalized area under the dose-response curve [15] | normalized area under the dose-response curve [16] | normalized area under the dose-response curve [17] | normalized area under the dose-response curve [18] | normalized area under the dose-response curve [19] | normalized area under the dose-response curve [20] | normalized area under the dose-response curve [21] | normalized area under the dose-response curve [22] | normalized area under the dose-response curve [23] | normalized area under the dose-response curve [24] | normalized area under the dose-response curve [25] | normalized area under the dose-response curve [26] | normalized area under the dose-response curve [27] | normalized area under the dose-response curve [28] | normalized area under the dose-response curve [29] | normalized area under the dose-response curve [30] | normalized area under the dose-response curve [31] | normalized area under the dose-response curve [32] | normalized area under the dose-response curve [33] | normalized area under the dose-response curve [34] | normalized area under the dose-response curve [35] | normalized area under the dose-response curve [36] | normalized area under the dose-response curve [37] | normalized area under the dose-response curve [38] | normalized area under the dose-response curve [39] | normalized area under the dose-response curve [40]
1 | N#CC[C@H](C1CCCC1)n1cc(-c2ncnc3[nH]ccc23)cn1 [Ruxolitinib] | 0.925 | 0.879 | 0.959 | 0.927 | 0.894 | 0.997 | 0.931 | 0.983 | 0.91 | 1.01 | 0.804 | 0.863 | 0.853 | 0.828 | 0.85 | 0.861 | 0.911 | 0.958 | 0.89 | 0.708 | 0.978 | 0.802 | 0.913 | 0.853 | 0.775 | 0.928 | 0.91 | 0.972 | 0.898 | 0.83 | 0.993 | 0.742 | 0.886 | 0.944 | 0.87 | 0.713 | 0.833 | 0.774 | 0.997 | 0.91
2 | O=P1(N(CCCl)CCCl)NCCCO1 (stereo not given) [Cyclophosphamide] | 1 | 0.863 | 0.929 | 0.918 | 0.95 | 0.958 | 0.912 | 0.907 | 0.91 | 0.915 | 0.878 | 0.831 | 0.928 | 0.865 | 0.88 | 0.977 | 0.884 | 0.949 | 0.92 | 0.791 | 0.944 | 0.956 | 0.923 | 0.913 | 0.962 | 0.969 | 0.9 | 0.983 | 0.86 | 0.911 | 0.972 | 0.931 | 0.93 | 0.885 | 0.822 | 0.937 | 0.862 | 0.943 | 0.887 | 0.93
3 | CNC(=O)c1cc(Oc2ccc(NC(=O)Nc3ccc(Cl)c(C(F)(F)F)c3)cc2)ccn1 [Sorafenib] | 0.877 | 0.752 | 0.901 | 0.594 | 0.435 | 0.913 | 0.539 | 0.872 | 0.6 | 0.922 | 0.543 | 0.578 | 0.704 | 0.655 | 0.61 | 0.495 | 0.578 | 0.56 | 0.59 | 0.239 | 0.471 | 0.634 | 0.611 | 0.459 | 0.836 | 0.937 | 0.57 | 0.873 | 0.499 | 0.824 | 0.589 | 0.812 | 0.663 | 0.955 | 0.535 | 0.576 | 0.45 | 0.747 | 0.546 | 0.57
4 | CNC(=O)c1cc(Oc2ccc(NC(=O)Nc3ccc(Cl)c(C(F)(F)F)c3)c(F)c2)ccn1 [Regorafenib] | 0.901 | 0.695 | 0.955 | 0.642 | 0.436 | 1 | 0.594 | 0.899 | 0.62 | 0.879 | 0.481 | 0.54 | 0.697 | 0.684 | 0.53 | 0.558 | 0.549 | 0.636 | 0.58 | 0.35 | 0.553 | 0.844 | 0.565 | 0.468 | 0.84 | 0.916 | 0.52 | 0.96 | 0.848 | 0.91 | 0.927 | 0.892 | 0.589 | 0.964 | 0.546 | 0.57 | 0.48 | 0.715 | 0.543 | 0.56
5 | CC(C)C[C@H](NC(=O)[C@H](Cc1ccccc1)NC(=O)c1cnccn1)B(O)O [Bortezomib] | 0.0456 | 0.0881 | 0.0391 | 0.7 | 0.343 | 0.0798 | 0.197 | 0.0129 | 0.26 | 0.009 | 0.05 | 0.0891 | 0.192 | 0.102 | 0.06 | 0.255 | 0.0751 | 0.212 | 0.08 | 0.196 | 0.0645 | 0.0685 | 0.0704 | 0.116 | 0.23 | 0.536 | 0.09 | 0.111 | 0.015 | 0.285 | 0.0146 | 0.332 | 0.0632 | 0.0249 | 0.131 | 0.1 | 0.167 | 0.0575 | 0.261 | 0.09
6 | Cc1[nH]c2ccccc2c1CCNCc1ccc(/C=C/C(=O)NO)cc1 [Panobinostat] | 0.424 | 0.52 | 0.286 | 0.594 | 0.56 | 0.167 | 0.812 | 0.303 | 0.42 | 0.284 | 0.483 | 0.613 | 0.249 | 0.244 | 0.35 | 0.592 | 0.444 | 0.698 | 0.47 | 0.333 | 0.618 | 0.454 | 0.567 | 0.297 | 0.422 | 0.501 | 0.25 | 0.36 | 0.173 | 0.374 | 0.13 | 0.187 | 0.188 | 0.322 | 0.659 | 0.23 | 0.389 | 0.347 | 0.682 | 0.16
